Assay results reported in patent US7939467B2, “4-(3-aminobenzoyl)-1-ethylpyrazoles and their use as herbicides” (Bayer CropScience AG, priority 2007, dated 2011).

What was measured:
Assay in all cases: Herbicidal action against harmful plants, greenhouse pot test (comparative tables)
Assay type in all cases: in vivo
[1] = test system: Veronica persica; settings: scored 3-4 weeks after treatment
Source text: (§1) Seeds or rhizome pieces of mono- and dicotyledonous harmful plants are placed in sandy loam in pots of a diameter of 9 to 13 cm and covered with soil. The herbicides, formulated as emulsifiable concentrates or dusts, are applied to the surface of the covering soil in the form of aqueous dispersions or suspensions or emulsions at an application rate of 300 to 800 l of water/ha (converted), at various dosages. For further cultivation of the plants, the pots are then kept in a greenhouse under optimum conditions. The visual scoring of the damage to the harmful plants is carried out 3-4 weeks after the treatment. As shown by the results of these comparative tables, the selected compounds according to the invention have better herbicidal activity against a broad spectrum of economically important mono- and dicotyledonous harmful plants than the compounds disclosed in the prior art.
(§2) Seeds of mono- and dicotyledonous harmful plants are placed in sandy loam in cardboard pots, covered with soil and grown in the greenhouse under good growth conditions. Two to three weeks after sowing, the test plants are treated at the three-leaf stage. The compounds according to the invention, which are formulated as wettable powders or as emulsion concentrates, are sprayed at an application rate of 600 to 800 l of water/ha (converted) in a dosage stated in tables 1 to 5 onto the surface of the green plant parts. After the test plants have been left to stand in the greenhouse for 3 to 4 weeks under optimum growth conditions, the action of the compounds according to the invention is scored in comparison to compounds disclosed in the prior art. As shown by the results of these comparison tables, the selected compounds according to the invention have better herbicidal activity against a broad spectrum of economically important mono- and dicotyledonous harmful plants than the compounds disclosed in the prior art.

[2] = test system: Setaria viridis; settings: scored 3-4 weeks after treatment
Source text: as §1, §2

[3] = test system: Echinochloa crus galli; settings: 80 g a.i./ha; scored 3-4 weeks after treatment; comparative table 2
Source text: as §1, §2

[4] = test system: Polygonum convolvulus; settings: scored 3-4 weeks after treatment
Source text: as §1, §2

[5] = test system: Matricaria inodora; settings: 320 g a.i./ha; scored 3-4 weeks after treatment; comparative table 1
Source text: as §1, §2

[6] = test system: Viola tricolor; settings: 320 g a.i./ha; scored 3-4 weeks after treatment; comparative table 1
Source text: as §1, §2

[7] = 80 g a.i./ha, comparative table 2
[8] = 320 g a.i./ha, comparative table 3
[9] = 320 g a.i./ha, comparative table 1

Row | Structure (SMILES) | Activity against harmful plants VERPE [1, 7] [%] | Activity against harmful plants SETVI [2, 7] [%] | Activity against harmful plants ECHCG [3] [%] | Activity against harmful plants POLCO [4, 7] [%] | Activity against harmful plants VERPE [1, 8] [%] | Activity against harmful plants SETVI [2, 8] [%] | Activity against harmful plants MATIN [5] [%] | Activity against harmful plants VIOTR [6] [%] | Activity against harmful plants POLCO [4, 9] [%]
1 | CCn1ncc(C(=O)c2ccc(S(C)(=O)=O)c(N(C)CCCOC)c2C)c1O | 90 | 90 | 90 | 80 | – | – | – | – | –
2 | CCn1ncc(C(=O)c2ccc(S(C)(=O)=O)c(NCC3CC3)c2C)c1O | – | – | – | – | 90 | 100 | – | – | –
3 | CCn1ncc(C(=O)c2ccc(S(C)(=O)=O)c(NCC3CC3)c2Cl)c1O | – | – | – | – | 70 | 80 | – | – | –
4 | CCOCCNc1c(S(C)(=O)=O)ccc(C(=O)c2cnn(CC)c2O)c1Cl | – | – | – | – | – | – | 0 | 70 | 0
5 | CCOCCNc1c(S(C)(=O)=O)ccc(C(=O)c2cnn(CC)c2O)c1C | – | – | – | – | – | – | 90 | 90 | 70
6 | CCn1ncc(C(=O)c2ccc(S(C)(=O)=O)c(N(C)CCCOC)c2Cl)c1O | 60 | 0 | 40 | 30 | – | – | – | – | –
